Like-named read-outs stand apart in the source and are kept apart here.
Columns and labels:
[1] = target: T1, LasB (Pseudomonas aeruginosa, UniProt Q02RJ6); assay: biochemical; type: biochemical
T1 construct: The purification of LasB from P. aeruginosa P14 supernatant and the; made in house; host or cells: P. aeruginosa PA14 (native producer), culture supernatant
Description: LasB Inhibition Assay. […]
(§1) Preparation of P. aeruginosa supernatant and LasB activity evaluation. A culture of a single colony of PA14 was grown in lysogeny broth medium at 28 °C with constant shaking at 130 rpm for 3 days. Then, the culture was centrifuged at 4 °C, 5000 rpm for 30 minutes. Finally, the supernatant was passed through a membrane filter of […] to sterilize it. The supernatant

[2] = target: MMP-3 (Homo sapiens, UniProt P08254); assay: Inhibition assay with human off-target MMP-3; type: biochemical; conditions: Table S2; concentration not given
[3] = target: T2, MMP-7 (Homo sapiens, UniProt P09237); assay: Inhibition assay with human off-target MMP-7; type: biochemical; conditions: Table S2; concentration not given
T2 sequence (P09237 95-267): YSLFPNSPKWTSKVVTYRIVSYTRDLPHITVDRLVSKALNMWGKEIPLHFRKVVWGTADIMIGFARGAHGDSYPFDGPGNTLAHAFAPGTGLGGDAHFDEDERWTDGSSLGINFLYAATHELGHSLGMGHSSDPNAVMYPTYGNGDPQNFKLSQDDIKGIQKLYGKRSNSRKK

[4] = target: HDAC-3 (Homo sapiens, UniProt O15379); assay: Inhibition assay with human off-target HDAC-3; type: biochemical; conditions: Table S2
[5] = target: T3, MMP-1 (Homo sapiens, UniProt P03956); assay: Inhibition assay with human off-target MMP-1; type: biochemical; conditions: Table S2; concentration not given
T3 sequence (P03956 100-469): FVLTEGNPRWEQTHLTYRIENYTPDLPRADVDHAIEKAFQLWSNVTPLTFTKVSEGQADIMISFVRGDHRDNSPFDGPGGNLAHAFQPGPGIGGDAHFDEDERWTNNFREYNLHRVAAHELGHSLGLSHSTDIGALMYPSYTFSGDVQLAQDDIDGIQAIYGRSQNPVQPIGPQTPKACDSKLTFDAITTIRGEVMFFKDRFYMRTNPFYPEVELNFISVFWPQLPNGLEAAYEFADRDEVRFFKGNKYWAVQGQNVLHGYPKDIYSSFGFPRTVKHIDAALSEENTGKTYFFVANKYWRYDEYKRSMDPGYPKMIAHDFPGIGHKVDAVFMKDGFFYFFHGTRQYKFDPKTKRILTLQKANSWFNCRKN

[6] = target: T4, HDAC-8 (Homo sapiens, UniProt Q9BY41); assay: Inhibition assay with human off-target HDAC-8; type: biochemical; conditions: Table S2
T4 sequence (Q9BY41 1-377): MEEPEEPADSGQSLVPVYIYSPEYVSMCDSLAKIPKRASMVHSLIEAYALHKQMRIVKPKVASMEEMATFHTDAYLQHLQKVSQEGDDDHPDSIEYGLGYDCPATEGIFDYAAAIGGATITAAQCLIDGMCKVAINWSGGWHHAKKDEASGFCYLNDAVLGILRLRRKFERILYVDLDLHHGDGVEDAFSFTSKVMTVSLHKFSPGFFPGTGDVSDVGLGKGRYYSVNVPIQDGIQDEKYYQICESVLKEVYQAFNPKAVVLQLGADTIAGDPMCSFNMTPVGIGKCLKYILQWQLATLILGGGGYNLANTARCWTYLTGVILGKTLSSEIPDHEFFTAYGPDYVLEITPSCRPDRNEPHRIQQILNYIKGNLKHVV

[7] = target: MMP-14 (Homo sapiens, UniProt P50281); assay: Inhibition assay with human off-target MMP-14; type: biochemical; conditions: Table S2; concentration not given
[8] = Cytotoxicity assay, HepG2; conditions: human, HepG2 cells
[9] = test system: P. aeruginosa PA14; assay: Minimum inhibitory concentration (MIC) assay; type: cell-based, Pseudomonas aeruginosa
[10] = target: T5, MMP-2 (Homo sapiens, UniProt P08253); assay: Inhibition assay with human off-target MMP-2; type: biochemical; conditions: Table S2; concentration not given
T5 sequence (P08253 110-660): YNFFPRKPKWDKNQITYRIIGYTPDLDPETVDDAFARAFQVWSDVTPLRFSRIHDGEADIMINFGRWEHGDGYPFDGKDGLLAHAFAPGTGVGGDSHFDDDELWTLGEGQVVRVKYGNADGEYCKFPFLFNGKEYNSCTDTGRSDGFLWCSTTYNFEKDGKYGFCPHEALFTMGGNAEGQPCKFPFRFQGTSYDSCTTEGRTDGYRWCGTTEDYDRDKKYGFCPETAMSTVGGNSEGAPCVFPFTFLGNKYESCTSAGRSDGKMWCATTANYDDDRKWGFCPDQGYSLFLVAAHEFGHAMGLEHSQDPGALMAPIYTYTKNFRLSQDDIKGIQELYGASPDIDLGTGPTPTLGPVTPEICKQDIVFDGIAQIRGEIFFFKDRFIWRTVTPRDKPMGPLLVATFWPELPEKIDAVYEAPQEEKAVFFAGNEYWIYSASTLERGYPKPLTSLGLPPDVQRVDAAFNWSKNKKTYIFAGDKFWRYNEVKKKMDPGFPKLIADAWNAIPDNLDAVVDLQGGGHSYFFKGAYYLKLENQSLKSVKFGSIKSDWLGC

[11] = target: MMP-8 (Homo sapiens, UniProt P22894); assay: Inhibition assay with human off-target MMP-8; type: biochemical; conditions: Table S2; concentration not given
[12] = Cytotoxicity assay, HEK 293; conditions: human, HEK 293 cells
[13] = Cytotoxicity assay, A549; conditions: human, A549 cells
[14] = target: T1, LasB; assay: Calculation of Ligand Efficiency (LE) and Lipophilic Ligand Efficiency (LLE); conditions: calculated
Excerpt: Although structure‐guided exploration of the N‐aryl ring substitution provided us with a strong starting point for lead optimization, systematic variation of the substituent in the α‐position (R^1) should be considered to exploit the lipophilicity of the S2′ pocket. In addition, compound 7 g only occupies a small fraction (approx. 24%) of the total predicted binding pocket volume, leaving the S2′ pocket largely untouched (Figure S4). Therefore, extension of the thiol group in that direction should allow additional ligand‐protein interactions, leading to a further improved inhibitory potency. […]

[15] = target: ADAM17 (Homo sapiens, UniProt P78536); assay: Inhibition assay with human off-target ADAM17 (TACE); type: biochemical
[16] = test system: Galleria mellonella larvae; assay: Galleria mellonella larvae survival model with P. aeruginosa PA14 supernatant; type: in vivo; conditions: for survival of larvae: 0.25 nmol compound injected with PA14 supernatant, three days of incubation, compared to PBS injected larvae; for survival of larvae, compound in PBS: compound in PBS without PA14 supernatant
Description: We next analyzed the antivirulence activity of LasB inhibitors in vivo, using a simple model based on G. mellonella larvae. […] We injected the larvae with the supernatant (s.n.) of P. aeruginosa PA14 with or without 0.25 nmol of either 4 or 7 g, incubated them for three days and recorded the survival once per day (Figure 3). […] Treatment of larvae with 0.25 nmol of compound 7 g increased survival up to 60% compared to PBS injected larvae.
PA14 s.n. was also present during compound treatment. PBS served as a negative control (dot dash). […]
as §1

[17] = target: T1, LasB; conditions: read-out: IC50 (known LasB inhibitors); Figure 1, known LasB inhibitors; cited from earlier work
[18] = in vitro; conditions: human
[19] = in vitro; conditions: human; remark: listed apart in the source
[20] = test system: human hepatoma cell line (HepG2); assay: Cytotoxicity assay, HepG2; conditions: HepG2, at 100 µM
[21] = in vitro; conditions: human; remark: listed apart in the source
[22] = test system: human embryonic kidney (HEK) 293 cells; assay: Cytotoxicity assay, HEK 293; conditions: HEK cells, at 100 µM

T1 sequence (Q02RJ6 198-498): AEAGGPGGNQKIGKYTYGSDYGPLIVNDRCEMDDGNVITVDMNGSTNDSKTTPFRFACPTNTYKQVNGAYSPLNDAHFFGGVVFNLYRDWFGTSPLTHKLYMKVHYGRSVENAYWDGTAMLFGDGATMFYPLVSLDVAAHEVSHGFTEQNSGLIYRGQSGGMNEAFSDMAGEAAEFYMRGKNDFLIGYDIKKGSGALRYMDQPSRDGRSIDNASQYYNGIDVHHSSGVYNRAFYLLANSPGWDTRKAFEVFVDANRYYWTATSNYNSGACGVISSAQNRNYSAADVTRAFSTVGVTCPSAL
HDAC-3, sequence (O15379 whole entry): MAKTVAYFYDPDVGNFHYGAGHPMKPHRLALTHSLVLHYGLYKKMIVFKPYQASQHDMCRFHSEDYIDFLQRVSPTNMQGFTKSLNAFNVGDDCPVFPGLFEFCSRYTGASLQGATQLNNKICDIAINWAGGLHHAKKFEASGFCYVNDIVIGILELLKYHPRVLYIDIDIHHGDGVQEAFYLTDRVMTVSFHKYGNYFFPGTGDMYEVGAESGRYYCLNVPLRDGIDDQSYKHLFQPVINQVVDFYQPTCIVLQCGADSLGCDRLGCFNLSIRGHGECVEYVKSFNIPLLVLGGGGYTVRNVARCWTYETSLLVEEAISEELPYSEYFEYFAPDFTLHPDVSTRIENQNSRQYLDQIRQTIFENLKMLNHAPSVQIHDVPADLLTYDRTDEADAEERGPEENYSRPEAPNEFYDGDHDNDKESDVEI
HDAC-3, sequence (Q9Y618 395-489 partner limits assumed): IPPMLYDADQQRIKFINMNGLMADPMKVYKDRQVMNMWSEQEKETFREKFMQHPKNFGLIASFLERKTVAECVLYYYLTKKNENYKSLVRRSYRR
ADAM17, sequence (P78536 215-824): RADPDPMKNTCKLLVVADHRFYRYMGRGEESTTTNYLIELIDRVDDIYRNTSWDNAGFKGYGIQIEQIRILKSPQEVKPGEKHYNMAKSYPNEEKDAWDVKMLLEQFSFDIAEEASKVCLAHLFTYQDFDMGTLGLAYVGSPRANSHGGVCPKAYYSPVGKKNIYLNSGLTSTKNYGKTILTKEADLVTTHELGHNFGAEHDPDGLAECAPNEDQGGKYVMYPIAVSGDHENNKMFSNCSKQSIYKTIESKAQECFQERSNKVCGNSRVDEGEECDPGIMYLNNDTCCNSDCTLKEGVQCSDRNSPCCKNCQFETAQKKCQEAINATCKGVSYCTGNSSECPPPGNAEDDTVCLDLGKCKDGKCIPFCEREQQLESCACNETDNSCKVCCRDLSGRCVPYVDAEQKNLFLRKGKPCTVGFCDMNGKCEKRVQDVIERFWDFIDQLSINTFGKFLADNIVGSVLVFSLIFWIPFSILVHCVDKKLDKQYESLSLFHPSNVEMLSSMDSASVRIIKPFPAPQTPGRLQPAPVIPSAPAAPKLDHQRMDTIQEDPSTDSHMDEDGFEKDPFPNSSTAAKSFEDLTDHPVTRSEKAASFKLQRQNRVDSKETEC
MMP-8, sequence (P22894 101-467): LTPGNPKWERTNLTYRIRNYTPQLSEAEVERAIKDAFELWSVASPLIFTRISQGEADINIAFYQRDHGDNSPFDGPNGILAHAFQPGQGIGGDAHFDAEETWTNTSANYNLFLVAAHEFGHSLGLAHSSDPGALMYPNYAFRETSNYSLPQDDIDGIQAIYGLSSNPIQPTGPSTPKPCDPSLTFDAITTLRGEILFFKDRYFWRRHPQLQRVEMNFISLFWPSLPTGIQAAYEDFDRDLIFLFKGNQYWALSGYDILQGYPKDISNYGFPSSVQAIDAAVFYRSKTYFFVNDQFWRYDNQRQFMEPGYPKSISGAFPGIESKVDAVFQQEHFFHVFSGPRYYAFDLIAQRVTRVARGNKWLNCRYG
MMP-3, sequence (P08254 100-477): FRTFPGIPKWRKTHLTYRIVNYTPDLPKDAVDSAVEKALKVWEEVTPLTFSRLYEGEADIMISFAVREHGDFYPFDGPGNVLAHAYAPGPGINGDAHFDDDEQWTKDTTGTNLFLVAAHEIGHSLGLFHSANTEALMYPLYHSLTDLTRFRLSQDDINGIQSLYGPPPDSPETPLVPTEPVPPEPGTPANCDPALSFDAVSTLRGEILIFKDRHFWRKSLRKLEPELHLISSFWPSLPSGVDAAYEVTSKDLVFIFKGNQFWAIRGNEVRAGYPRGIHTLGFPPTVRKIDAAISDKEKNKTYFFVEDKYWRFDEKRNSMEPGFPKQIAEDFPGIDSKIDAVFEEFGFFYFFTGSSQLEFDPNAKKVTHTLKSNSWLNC

Question: With `O=C(Nc1ccc(Cl)c(Cl)c1)C(S)CC1CCCCC1` (stereo not shown) [7 b] as the molecule, how does the IC50 [1] read?
Answer: The IC50 was 12 ± 3 µM.

Question: For `O=C(Nc1ccc(Cl)c(Cl)c1)C(S)CC1CC1` (stereo not shown) [7 c], which IC50 [1] is on record?
Answer: Its IC50 is 6.3 ± 1.2 µM.

Question: With `O=C(Nc1ccccc1)C(S)Cc1ccccc1` (stereo not shown) [7 d] as the molecule, how does the “inhibition of MMP-3” value [2] read?
Answer: The value was “n.i. (n.i. = <10% inhibition)”.

Question: What about the “fold improvement in IC50 value compared to 7 a” value ([1]; versus compound 7 a) of the same molecule?
Answer: Its value is “two‐fold”.

Question: And the “inhibition of MMP-7” value [3]?
Answer: Its value is “n.i. (n.i. = <10% inhibition)”.

Question: What about the IC50 [4] of the same molecule?
Answer: The IC50 was over 100 µM.

Question: And the “inhibition of MMP-1” value [5]?
Answer: The value was “n.i. (n.i. = <10% inhibition)”.

Question: What about the IC50 [6] of the same molecule?
Answer: The IC50 was over 100 µM.

Question: What about the “inhibition of MMP-14” value [7] of the same molecule?
Answer: The value was “n.i. (n.i. = <10% inhibition)”.

Question: And the IC50 [8]?
Answer: Its IC50 is over 100 µM.

Question: And the MIC [9]?
Answer: The MIC was over 100 µM.

Question: And the MIC ([9]; Pseudomonas aeruginosa)?
Answer: Its MIC is over 100 µM.

Question: What about the “inhibition of MMP-2” value [10] of the same molecule?
Answer: Its value is “n.i. (n.i. = <10% inhibition)”.

Question: What about the “inhibition of MMP-8” value [11] of the same molecule?
Answer: Its value is 26 ± 4%.

Question: What about the IC50 [12] of the same molecule?
Answer: Its IC50 is over 100 µM.

Question: What about the IC50 [13] of the same molecule?
Answer: The IC50 was over 100 µM.

Question: For `Cc1ccccc1NC(=O)C(S)Cc1ccccc1` (stereo not shown) [7 e], which IC50 [1] is on record?
Answer: The IC50 was 2.4 ± 1 µM.

Question: For `Cc1cccc(NC(=O)C(S)Cc2ccccc2)c1` (stereo not shown) [7 f], which IC50 [1] is on record?
Answer: The IC50 was 1 ± 0.4 µM.

Question: With `Cc1ccc(NC(=O)C(S)Cc2ccccc2)cc1` (stereo not shown) [7 g] as the molecule, how does the “Ligand Efficiency (LE)” value [14] read?
Answer: The value was 0.43.

Question: What about the “Lipophilic Ligand Efficiency (LLE)” value [14] of the same molecule?
Answer: The value was 2.37.

Question: And the IC50 [1]?
Answer: The IC50 was 0.48 ± 0.04 µM.

Question: And the IC50 ([15]; Table S2, read-out: IC50 ADAM17)?
Answer: The IC50 was 4.8 ± 1.5 µM.

Question: And the IC50 [8]?
Answer: Its IC50 is over 100 µM.

Question: What about the MIC ([9]; Pseudomonas aeruginosa) of the same molecule?
Answer: The MIC was over 100 µM.

Question: What about the IC50 [12] of the same molecule?
Answer: Its IC50 is over 100 µM.

Question: And the IC50 [13]?
Answer: The IC50 was over 100 µM.

Question: And the survival of larvae [16]?
Answer: The survival of larvae was “up to 60%”.

Question: What about the “survival of larvae, compound in PBS” value [16] of the same molecule?
Answer: The value was 100%.

Question: With `CC(C)C[C@H](NP(=O)(O)O[C@@H]1O[C@@H](C)[C@H](O)[C@@H](O)[C@H]1O)C(=O)N[C@@H](Cc1c[nH]c2ccccc12)C(=O)O` [Compound 1, phosphoramidon] as the molecule, how does the IC50 [17] read?
Answer: Its IC50 is 0.207 µM.

Question: What does the source list for `O=C(CS)Nc1ccc(Cl)c(Cl)c1` [Compound 4, N‐(3,4‐dichlorophenyl) mercaptoacetamide]?
Answer: inhibition of MMP-3 [2]: n.i. (n.i. = <10% inhibition); IC50 [18]: > 100 µM; IC50 [19]: > 100 µM; inhibition of MMP-7 [3]: n.i. (n.i. = <10% inhibition); IC50 [4]: > 100 µM; inhibition of MMP-1 [5]: n.i. (n.i. = <10% inhibition); IC50 [15]: > 100 µM; IC50 [6]: > 100 µM; inhibition of MMP-14 [7]: n.i. (n.i. = <10% inhibition); reduction in viability [20]: 23±3%; MIC ([9]; Pseudomonas aeruginosa): > 100 µM; IC50 [21]: > 100 µM; inhibition of MMP-2 [10]: n.i. (n.i. = <10% inhibition); inhibition of MMP-8 [11]: n.i. (n.i. = <10% inhibition); reduction in viability [22]: 33±10%; survival of larvae [16]: virtually no improvement in survival; survival of larvae, compound in PBS [16]: 100%
